Reference: patent US20250281424A1 (New York Blood Center, Inc, priority 2020, published 2025)
pIC50: −log10 of the molar value.

Molecular target: T1, human PF4 (Homo sapiens, UniProt P02776)
T1 construct: PF4 is a 70 amino acid, lysine-rich 7.8 kDa platelet-specific protein; made in house; host or cells: Escherichia coli BL21DE3 pLysS (pT7-7) and/or Drosophila S2 cells
T1 sequence (P02776 32-101): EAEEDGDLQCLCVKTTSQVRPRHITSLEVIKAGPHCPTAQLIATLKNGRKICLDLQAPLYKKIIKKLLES
Assay: Inhibition of PF4 tetramer formation (BS3 cross-linking, SDS-PAGE)
Type: biochemical
Conditions: for inhibition at 1 µM / inhibition at 3 µM / inhibition at 5 µM / inhibition at 10 µM: read-out: % inhibition of PF4 tetramer formation at single concentration of inhibitor; for inhibition at 5 µM: 5 μM inhibitor; for inhibition at 10 µM: 10 μM inhibitor (column A); for pIC50: read-out: IC50 of PF4 tetramer formation inhibition
Method in brief: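 Recombinant human wild-type PF4 (E. coli-expressed, heparin-purified), 10 μg/ml in PBS, incubated with compound 15 min at 37° C or 60 min at room temperature, then cross-linked with 0.2 mM BS3 for 30 min at room temperature. Reducing 12% SDS-PAGE; bands quantified as % tetramer, trimer, dimer, monomer versus compound-free control.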

| SMILES | inhibition at 1 µM (1 μM inhibitor) | inhibition at 3 µM (3 μM inhibitor (column A)) | inhibition at 5 µM | inhibition at 10 µM | pIC50 | also measured |
| --- | --- | --- | --- | --- | --- | --- |
| Cc1ccccc1C(=O)CCC(=O)C1C(=O)c2ccc(S(=O)(=O)c3ccc4c(c3)C(=O)C(C(=O)CCC(=O)c3ccccc3C)C4=O)cc2C1=O (stereo not drawn) [Example 254, 2-[4-(2-methylphenyl)-4-oxobutanoyl]-5-({2-[4-(2-methylphenyl)-4-oxobutanoyl]-1,3-dioxo-2,3-dihydro-1H-inden-5-yl}sulfonyl)-2,3-dihydro-1H-indene-1,3-dione] | 28% | 51% |  |  |  |  |
| CC(=O)C1C(=O)c2cc(S(=O)(=O)c3cnc4c(c3)C(=O)C(C(C)=O)C4=O)cnc2C1=O (stereo not drawn) [Example 301, 6-acetyl-3-({6-acetyl-5,7-dioxo-5H,6H,7H-cyclopenta[b]pyridin-3-yl}sulfonyl)-5H,6H,7H-cyclopenta[b]pyridine-5,7-dione] | 23% | 30% |  |  |  |  |
| O=C(NCC1CCCO1)C1C(=O)c2ccc(S(=O)(=O)c3ccc4c(c3)C(=O)C(C(=O)NCC3CCCO3)C4=O)cc2C1=O (stereo not drawn) [Example 89, 5-[(1,3-dioxo-2-{[(oxolan-2-yl)methyl]carbamoyl}-2,3-dihydro-1H-inden-5-yl)sulfonyl]-1,3-dioxo-N-[(oxolan-2-yl)methyl]-2,3-dihydro-1H-indene-2-carboxamide] |  |  | 38% | 66% |  |  |
| CC(C)(C)OC(=O)N1CCC[C@H]1C(=O)C1C(=O)c2ccc(-c3ccc4c(c3)C(=O)C(C(=O)[C@@H]3CCCN3C(=O)OC(C)(C)C)C4=O)cc2C1=O (stereo partly drawn) [Example 209, tert-butyl (2S)-2-{2′-[(2S)-1-[(tert-butoxy)carbonyl]pyrrolidine-2-carbonyl]-1,1′,3,3′-tetraoxo-1H,1′H,2H,2′H,3H,3′H-[5,5′-biindene]-2-carbonyl}pyrrolidine-1-carboxylate] |  |  | 75% | 96% | 5.38 |  |
| CC(C(=O)C1C(=O)c2ccc(C(=O)c3ccc4c(c3)C(=O)C(C(=O)C(C)c3ccc(F)cc3)C4=O)cc2C1=O)c1ccc(F)cc1 (stereo not drawn) [Example 242, 2-[2-(4-fluorophenyl)propanoyl]-5-{2-[2-(4-fluorophenyl)propanoyl]-1,3-dioxo-2,3-dihydro-1H-indene-5-carbonyl}-2,3-dihydro-1H-indene-1,3-dione] | 13% | 31% |  |  |  |  |
| CC(=O)NCC(=O)C1C(=O)c2ccc(Oc3ccc4c(c3)C(=O)C(C(=O)CNC(C)=O)C4=O)cc2C1=O (stereo not drawn) [Example 298, N-[2-(5-{[2-(2-acetamidoacetyl)-1,3-dioxo-2,3-dihydro-1H-inden-5-yl]oxy}-1,3-dioxo-2,3-dihydro-1H-inden-2-yl)-2-oxoethyl]acetamide] |  |  |  |  |  | % inhibition of PF4 tetramer formation at single concentration of inhibitor (1 μM inhibitor, 1 µM): 32%; % inhibition of PF4 tetramer formation at single concentration of inhibitor (3 μM inhibitor (column A), 3 µM): 60% |
| CC(C)(C)OC(=O)N1CCC[C@H]1C(=O)C1C(=O)c2ccc(C(=O)c3ccc4c(c3)C(=O)C(C(=O)[C@@H]3CCCN3C(=O)OC(C)(C)C)C4=O)cc2C1=O (stereo partly drawn) [Example 111, tert-butyl (2S)-2-(5-{2-[(2S)-1-[(tert-butoxy)carbonyl]pyrrolidine-2-carbonyl]-1,3-dioxo-2,3-dihydro-1H-indene-5-carbonyl}-1,3-dioxo-2,3-dihydro-1H-indene-2-carbonyl)pyrrolidine-1-carboxylate] |  |  | 100% | 100% | 6.30 |  |
| CC(C)(C)OC(=O)N1CCC[C@H]1C(=O)C1C(=O)c2ccc(Oc3ccc4c(c3)C(=O)C(C(=O)[C@@H]3CCCN3C(=O)OC(C)(C)C)C4=O)cc2C1=O (stereo partly drawn) [Example 193, tert-butyl (2S)-2-[5-({2-[(2S)-1-[(tert-butoxy)carbonyl]pyrrolidine-2-carbonyl]-1,3-dioxo-2,3-dihydro-1H-inden-5-yl}oxy)-1,3-dioxo-2,3-dihydro-1H-indene-2-carbonyl]pyrrolidine-1-carboxylate] |  |  | 37% | 40% |  |  |
| COCCOCCNCC(=O)C1C(=O)c2ccc(Oc3ccc4c(c3)C(=O)C(C(=O)CNCCOCCOC)C4=O)cc2C1=O (stereo not drawn) [Example 394, 2-(2-{[2-(2-methoxyethoxy)ethyl]amino}acetyl)-5-{[2-(2-{[2-(2-methoxyethoxy)ethyl]amino}acetyl)-1,3-dioxo-2,3-dihydro-1H-inden-5-yl]oxy}-2,3-dihydro-1H-indene-1,3-dione] | 2% | 5% |  |  |  |  |
| CC(C)(C)OC(=O)N1C[C@H](F)C[C@H]1C(=O)C1C(=O)c2ccc(C(=O)c3ccc4c(c3)C(=O)C(C(=O)[C@@H]3C[C@@H](F)CN3C(=O)OC(C)(C)C)C4=O)cc2C1=O (stereo partly drawn) [Example 113, tert-butyl (2S,4R)-2-(5-{2-[(2S,4R)-1-[(tert-butoxy)carbonyl]-4-fluoropyrrolidine-2-carbonyl]-1,3-dioxo-2,3-dihydro-1H-indene-5-carbonyl}-1,3-dioxo-2,3-dihydro-1H-indene-2-carbonyl)-4-fluoropyrrolidine-1-carboxylate] |  |  | 68% | 86% | 5.27 |  |
| CC(C)(C)OC(=O)N1CCCC[C@@H]1C(=O)C1C(=O)c2ccc(Oc3ccc4c(c3)C(=O)C(C(=O)[C@H]3CCCCN3C(=O)OC(C)(C)C)C4=O)cc2C1=O (stereo partly drawn) [Example 274, tert-butyl (2R)-2-[5-({2-[(2R)-1-[(tert-butoxy)carbonyl]piperidine-2-carbonyl]-1,3-dioxo-2,3-dihydro-1H-inden-5-yl}oxy)-1,3-dioxo-2,3-dihydro-1H-indene-2-carbonyl]piperidine-1-carboxylate] | 21% | 60% |  |  |  |  |
| CCC(=O)C1C(=O)c2ccc(C(=O)c3ccc4c(c3)C(=O)C(C(=O)CC)C4=O)cc2C1=O (stereo not drawn) [Example 324, 5-(1,3-dioxo-2-propanoyl-2,3-dihydro-1H-indene-5-carbonyl)-2-propanoyl-2,3-dihydro-1H-indene-1,3-dione] |  |  |  | 35% |  |  |
| COCCOCCNC(=O)C1C(=O)c2ccc(S(=O)(=O)c3ccc4c(c3)C(=O)C(C(=O)NCCOCCOC)C4=O)cc2C1=O (stereo not drawn) [Example 295, N-[2-(2-methoxyethoxy)ethyl]-5-[(2-{[2-(2-methoxyethoxy)ethyl]carbamoyl}-1,3-dioxo-2,3-dihydro-1H-inden-5-yl)sulfonyl]-1,3-dioxo-2,3-dihydro-1H-indene-2-carboxamide] | 29% | 100% |  |  | 5.96 |  |
| O=C(NC1CCC1)C1C(=O)c2ccc(Oc3ccc4c(c3)C(=O)C(C(=O)NC3CCC3)C4=O)cc2C1=O (stereo not drawn) [Example 389, N-cyclobutyl-5-{[2-(cyclobutylcarbamoyl)-1,3-dioxo-2,3-dihydro-1H-inden-5-yl]oxy}-1,3-dioxo-2,3-dihydro-1H-indene-2-carboxamide] | 31% | 80% |  |  |  |  |
| Cc1ccccc1C(=O)CCC(=O)C1C(=O)c2ccc(C(=O)c3ccc4c(c3)C(=O)C(C(=O)CCC(=O)c3ccccc3C)C4=O)cc2C1=O (stereo not drawn) [Example 252, 2-[4-(2-methylphenyl)-4-oxobutanoyl]-5-{2-[4-(2-methylphenyl)-4-oxobutanoyl]-1,3-dioxo-2,3-dihydro-1H-indene-5-carbonyl}-2,3-dihydro-1H-indene-1,3-dione] | 14% | 37% |  |  | 5.52 |  |
| CC(C)[C@@H](N)C(=O)C1C(=O)c2ccc(S(=O)(=O)c3ccc4c(c3)C(=O)C(C(=O)[C@H](N)C(C)C)C4=O)cc2C1=O (stereo partly drawn) [Example 353, 2-[(2R)-2-amino-3-methylbutanoyl]-5-({2-[(2R)-2-amino-3-methylbutanoyl]-1,3-dioxo-2,3-dihydro-1H-inden-5-yl}sulfonyl)-2,3-dihydro-1H-indene-1,3-dione] | 22% | 37% |  |  |  |  |
